This passage reports melting point results from patent US6432995B1, “Aromatic heterocyclic compounds and their use as anti-inflammatory agents” (Boehringer Ingelheim Pharmaceuticals, Inc., priority 1997, dated 2002).

`Cc1ccc(-n2nc(C(C)(C)C)cc2NC(=O)Nc2ccc(F)cc2)cc1C` [Example 32, 1-(5-tert-Butyl-2-(3,4-dimethylphenyl)-2H-pyrazol-3-yl)-3-(4-fluorophenyl)urea] had a melting point of 223 to 225 °C.
